From US20250064808A1, “METHODS FOR THE TREATMENT OF NLRP3 RELATED DISORDERS” (priority 2022, published 2025)

What was measured:
[1] = system: BMDM; assay: cytosolic Ca2+ (Fluo-4) in BMDM; format: cell-based, mouse; conditions: XeC 5 μM 16 h, ATP challenge
Protocol: (§2) Bone marrow cells were cultured in high glucose DMEM supplemented with 10% FBS, 20% L929-cell conditioned medium, and 100 U/mL penicillin-streptomycin for 7-10 days at 37° C. with 5% CO2 (Hornung et al., 2008).
(§3) Mitochondrial membrane potential was measured using TMRM according to manufacturer's instructions. Briefly, BMDM were primed or not with LPS for 4 h, and further stimulated with ATP or nigericin for 60 minutes. Cells were incubated with 200 nM TMRM for 30 minutes at 37° C. After washing twice, fluorescence intensity was determined per manufacturer's instructions using a FilterMax F5 multimode plate reader (Molecular Devices). Mitochondrial reactive oxygen species (mtROS) were measured using MitoSOX (Invitrogen) as described (Xian et al., 2021). […] After washing with PBS twice, cells were resuspended in PBS and counted. Equal numbers of cells from different treatment groups were then plated onto 96-well plates for fluorescence reading. To quantify [Ca^2+]m by 5 μM Rhod-2 or intracellular Ca^2+ intensity by 1 μM Fluo-4, BMDM treated as indicated were loaded with the respective dyes according to manufacturer's instructions for 30 minutes. After washing twice, fluorescence intensity was determined using a FilterMax F5 multimode plate reader (Molecular Devices). […] After washing twice, fluorescence intensity was determined per with a FilterMax F5 multimode plate reader (Molecular Devices).

[2] = system: BMDM; assay: mitochondrial Ca2+ ([Ca^2+]m, Rhod-2) in BMDM; format: cell-based, mouse; conditions: LPS-primed BMDM, XeC 5 μM or RuR 10 μM 16 h
Protocol: After washing, BMDM were kept in the incubator for additional 30 minutes before confocal imaging (Nikon CSU-X1 Spinning Disk). Dynamic [Ca^2+]m images were captured at 10 seconds intervals for 4 minutes, with the addition of NLRP3 agonist at 40 seconds.

[3] = system: BMDM; assay: cytosolic Ox-mtDNA (8-OH-dG ELISA of cytosolic mtDNA) in BMDM; format: cell-based, mouse; conditions: ATP 4 mM 1 h
Protocol: as §2
(§4) BMDM were stimulated as indicated. […] Briefly, BMDM were washed with PBS and harvested, 10% of which were saved for DNA extraction of whole cells. The remaining BMDM resuspended with pre-chilled mitochondrial extraction buffer 1 (220 mM mannitol, 70 mM sucrose, 20 mM HEPES-KOH, pH 7.5, 1 mM EDTA and 2 mg/mL bovine serum albumin) supplemented with a protease inhibitor cocktail and a phosphatase inhibitor cocktail were passed through a 25-G syringe (BD Biosciences) 20 times on ice. The homogenized cells were centrifuged at 1000×g for 15 minutes at 4° C. The supernatant was further centrifuged at 10,000×g for 10 minutes at 4° C. to pellet the mitochondria from supernatant cytosolic fraction. qPCR was performed after DNA purification with AllPrep DNA/RNA Mini Kit according to manufacturer's instructions, from both whole cell extracts and cytosolic fractions using mtDNA primers (D-loop, Cox1, non-NUMT), or after DNA purification from whole cell extracts using nuclear DNA primers (Tert, 18S, B2m). The Ct values obtained for mtDNA abundance in whole cell extracts served as normalization controls for the mtDNA values obtained from the cytosolic fractions. For the measurement of Ox-mtDNA, purified mtDNA was extracted from the cytosolic or mitochondrial fractions as indicated. The 8-OH-dG content was then quantified using 8-hydroxy 2-deoxyguanosine ELISA Kit, per manufacturer's instructions.

[4] = ccf-mtDNA and Fpg-sensitive Ox-mtDNA in peritoneal exudates of alum-challenged mice; format: in vivo, mouse; conditions: FEN1-IN-4 40 mg/kg, exudates 4 and 16 hrs post-challenge
[5] = system: BMDM; assay: total mtDNA (LPS-stimulated mtDNA synthesis, qPCR) in BMDM; format: cell-based, mouse; conditions: compound 10 μM 16 h, before or after LPS priming
Excerpt: Nuclear DNA encoding telomerase reverse transcriptase (Tert), 18S ribosomal RNA and β2 microglobulin (B2m) was used for normalization.

[6] = system: BMDM; assay: mtROS (MitoSOX) in BMDM; conditions: LPS-primed BMDM, compound pretreatment 16 h, ATP or nigericin
Protocol: as §2
(§5) Mitochondrial membrane potential was measured using TMRM according to manufacturer's instructions. Briefly, BMDM were primed or not with LPS for 4 h, and further stimulated with ATP or nigericin for 60 minutes. Cells were incubated with 200 nM TMRM for 30 minutes at 37° C. After washing twice, fluorescence intensity was determined per manufacturer's instructions using a FilterMax F5 multimode plate reader (Molecular Devices). Mitochondrial reactive oxygen species (mtROS) were measured using MitoSOX (Invitrogen) as described (Xian et al., 2021). BMDM treated as indicated were loaded with 4 μM MitoSOX for 20 minutes. After washing with PBS twice, cells were resuspended in PBS and counted. Equal numbers of cells from different treatment groups were then plated onto 96-well plates for fluorescence reading. To quantify [Ca^2+]m by 5 μM Rhod-2 or intracellular Ca^2+ intensity by 1 μM Fluo-4, BMDM treated as indicated were loaded with the respective dyes according to manufacturer's instructions for 30 minutes. After washing twice, fluorescence intensity was determined using a FilterMax F5 multimode plate reader (Molecular Devices). To analyze mPTP opening by calcein-quenching assay, BMDM treated as indicated were loaded with calcein at 2 μM and CoCl2 at 160 μM for 30 minutes at 37° C. according to manufacturer's instructions. After washing twice, fluorescence intensity was determined per with a FilterMax F5 multimode plate reader (Molecular Devices).

[7] = system: BMDM; assay: cytosolic mtDNA (qPCR after cellular fractionation) in BMDM; format: cell-based, mouse; conditions: ATP 4 mM 1 h
Protocol: as §2, §4

[8] = system: BMDM; assay: extracellular (cell-free) mtDNA released by donor BMDM; format: cell-based, mouse; conditions: LPS-primed donor BMDM pretreated with compound, challenged with ATP or nigericin
Protocol: Extracellular DNA of donor macrophages (1500,000 cells per group) was isolated using QIAamp Circulating Nucleic Acid Kit according to manufacturer's instructions and then eluted in 300 μL distilled H2O and quantified using spectrophotometric analysis at 260/280 nm with Nanodrop. […] Applicant used 5% of the prepared DNA for qPCR measurement of extracellular mtDNA and the remaining 95% were added to the recipient BMDM for analyzing the paracrine immunostimulatory effects.

[9] = system: BMDM; assay: mtDNA fragmentation (agarose gel of cytosolic and mitochondrial DNA) in BMDM; format: cell-based, mouse; conditions: FEN1-IN-4 10 μM 16 h, LPS-primed, ATP
Excerpt: To analyze DNA fragmentation and extrusion in mitochondrial and cytosolic fractions, BMDM (15000,000 cells per group) were stimulated as indicated and fractionalized as above. […] Cytosolic, mitochondrial or nuclear DNAs were purified using AllPrep DNA/RNA Mini Kit according to manufacturer's instructions and analyzed on 1% agarose gels stained with ethidium bromide.

[10] = system: STING; assay: STING Ser365 phosphorylation (puncta by immunofluorescence, immunoblot) in BMDM; conditions: CsA 1 μM, VBIT-4 10 μM or FEN1-IN-4 10 μM 16 hrs; for formation of Ser^365 phosphorylated STING puncta: LPS-primed BMDM, ATP or nigericin; for ATP-induced STING Ser^365 phosphorylation (immunoblot) in Nlrp3−/− BMDM: LPS-primed Nlrp3−/− BMDM
Protocol: as §2
Whole cell lysates were prepared in RIPA buffer (25 mM Tris-HCl pH 7.6, 150 mM NaCl, 1% NP-40, 1% sodium deoxycholate, 0.1% SDS) containing a protease inhibitor cocktail and a phosphatase inhibitor cocktail. Protein concentrations were determined using BCA Protein Assay Kit. Equal amounts of protein were separated by SDS-PAGE and transferred onto PVDF membranes, blocked in 5% BSA in 1×TBST for 1 h and incubated with primary antibodies overnight. Secondary antibodies were added for 1 h and detection was performed using Clarity Western ECL Substrate.
(§6) BMDM were fixed in 4% paraformaldehyde (PFA), permeabilized in 0.2% Triton X-100,and blocked in 1×PBS supplemented with 3% BSA. […] Nuclei were counterstained with DAPI.

[11] = system: BMDM; assay: stimulation of naive recipient BMDM by cell-free mtDNA (cytokine and ISG mRNA, qPCR); format: cell-based, mouse; conditions: recipient BMDM incubated 24 h with DNA from compound-pretreated donor BMDM; cytokine and ISG mRNAs
Protocol: RNA was extracted using AllPrep DNA/RNA Mini kit, and cDNA was synthesized using SuperScript™ VILO™ cDNA Synthesis Kit. mRNA expression was determined by QPCR in a CFX96 thermal cycler (Biorad) as described (Xian et al., 2021). Data are presented in arbitrary units and calculated by the 2^(−ΔΔCT) method. Primer sequences were obtained from the NIH qPrimerDepot (http://mouseprimerdepot.nci.nih.gov) and provided by Integrated DNA technologies.
Extracellular DNA of donor macrophages (1500,000 cells per group) was isolated using QIAamp Circulating Nucleic Acid Kit according to manufacturer's instructions and then eluted in 300 μL distilled H2O and quantified using spectrophotometric analysis at 260/280 nm with Nanodrop. DNA amounts purified among the different treatment groups vary. The DNA amount secreted from LPS-primed donor BMDM is low, approximately at 0.1 μg. The amount of DNA released by LPS-primed donor BMDM challenged with ATP is about 1.3 μg, while the amount of DNA released by LPS-primed donor BMDM challenged with nigericin is around 2 μg. The amount of DNA secreted by LPS-primed donor BMDM challenged with MSU or alum is about 0.7 μg. Applicant used 5% of the prepared DNA for qPCR measurement of extracellular mtDNA and the remaining 95% were added to the recipient BMDM for analyzing the paracrine immunostimulatory effects.

[12] = system: NLRP3 inflammasome; assay: alum-induced peritonitis in mice; format: in vivo, mouse
Protocol: 8-12-week-old male C57BL/6 mice and WT or mt-Ogg1Tg mice were allocated randomly and i.p. injected with alum (1 mg dissolved in 0.2 mL sterile PBS) or PBS. Peritoneal lavage was collected 4 h post-injection to measure cytokine amounts by ELISA. […] Neutrophils (CD11b^+Ly6G^+F4/80^−) and monocytes (CD11b^+Ly6C^+Ly6G^−) present in peritoneal lavage fluid were quantified by flow cytometry. For blocking Fc-mediated interactions, mouse cells were pre-incubated with 0.5-1 μg of purified anti-mouse CD16/CD32 per 100 μL. Isolated cells were stained with labelled antibodies in PBS with 2% FCS and 2 mM EDTA or cell staining buffer (Biolegend). Dead cells were excluded based on staining with propidium iodide (PI). Absolute numbers of immune cell subtypes in the peritoneum were calculated by multiplying total peritoneal cell numbers by percentages of immune cell subtypes amongst total cells. Cells were analyzed on a Beckman Coulter Cyan ADP flow cytometer. Paired antibodies (capture and detection) and standard recombinant mouse IL-1β and TNF were used to determine mouse cytokine concentrations according to manufacturer's instructions.

[13] = system: BMDM; assay: 8-OH-dG content of mtDNA from mitochondria of BMDM
Protocol: as §2, §4

[14] = system: NLRP3 inflammasome; assay: NLRP3 inflammasome activation (Casp1 p20 and mature IL-1β, IB and ELISA) in BMDM; format: cell-based, mouse; conditions: LPS-primed BMDM, compound pretreatment 16 h, challenged with NLRP3 activators
Excerpt: (§1) Paired antibodies (capture and detection) and standard recombinant mouse IL-1β and TNF were used to determine mouse cytokine concentrations according to manufacturer's instructions.

[15] = system: NLRP3, pro-IL-1β, pro-casp1 and ASC; assay: immunoblot of NLRP3 inflammasome component expression in BMDM lysates; format: cell-based, mouse; conditions: BMDM lysates before and after LPS priming, compound pretreatment 16 h
[16] = system: BMDM; assay: mitochondrial membrane potential (TMRM) in BMDM; format: cell-based, mouse; conditions: BMDM incubated with CsA or VBIT-4
Protocol: as §2, §3

[17] = system: mPTP; assay: calcein-quenching assay for mPTP opening in BMDM; format: cell-based; conditions: BMDM pretreated 16 h (CsA 1 μM, VBIT-4 10 μM, RuR 10 μM), LPS-primed, ATP or nigericin 1 h
Protocol: as §2, §5

[18] = system: BMDM; assay: Ox-mtDNA and mtDNA in the intermembrane space (proteinase K digested mitochondria); conditions: supernatant of proteinase K digested mitochondria from treated BMDM
Protocol: To dissect the roles of VDAC oligomerization and mPTP in mtDNA escape, Applicant investigated whether Ox-mtDNA and mtDNA were trapped in the mitochondrial intermembrane space (IMS) of VBIT-4 treated BMDM. […] Using this method (FIG. 2F), Applicant measured relative Ox-mtDNA and mtDNA amounts in the IMS.
BMDM were stimulated as indicated. Cellular fractionation was carried out as previously described (Xian and Liou, 2019; Xian et al., 2019). Briefly, BMDM were washed with PBS and harvested, 10% of which were saved for DNA extraction of whole cells. The remaining BMDM resuspended with pre-chilled mitochondrial extraction buffer 1 (220 mM mannitol, 70 mM sucrose, 20 mM HEPES-KOH, pH 7.5, 1 mM EDTA and 2 mg/mL bovine serum albumin) supplemented with a protease inhibitor cocktail and a phosphatase inhibitor cocktail were passed through a 25-G syringe (BD Biosciences) 20 times on ice. The homogenized cells were centrifuged at 1000×g for 15 minutes at 4° C. […] The 8-OH-dG content was then quantified using 8-hydroxy 2-deoxyguanosine ELISA Kit, per manufacturer's instructions.

[19] = system: TNF; assay: TNF secretion by BMDM (ELISA); format: cell-based, mouse; conditions: compound pretreatment 16 h, LPS priming, NLRP3 activators
Excerpt: as §1

[20] = system: VDAC; assay: VDAC cross-linking assay (VDAC oligomerization) in BMDM; format: cell-based, mouse; conditions: LPS-primed BMDM, compound pretreatment 16 h (VBIT-4 10 μM, CsA 1 μM, RuR 10 μM), ATP 4 mM or nigericin 10 μM 1 h
Protocol: BMDM treated as indicated were washed and collected in PBS, incubated for 40 min at 30° C. with the cross-linking reagent EGS (200 μM). Samples were subjected to SDS-PAGE and IB analyzed with anti-VDAC antibody.

[21] = system: ASC; assay: ASC speck formation (immunofluorescence) in BMDM
[22] = system: BMDM; assay: cytochrome C release (immunofluorescence) in BMDM; format: cell-based, mouse; conditions: BMDM treated with etoposide (positive control)
Protocol: as §2, §6

[23] = LPS-primed BMDM, compound 10 μM 16 h
[24] = FEN1-IN-4 40 mg/kg 16 h prior to i.p. alum 1 mg, exudate 4 h later
[25] = FEN1-IN-4 40 mg/kg 16 h prior to i.p. alum, 16 h
[26] = LPS-primed shCtrl or shOgg1 BMDM, CsA 1 μM or VBIT-4 10 μM 16 h

C1CCC[C@H]2CCCN3CC[C@@H](CCCCCC[C@@H]4CCCN5CC[C@@H](CC1)O[C@@H]45)O[C@@H]23 [XeC, xestospongin C]
cytosolic Ca^2+ (Fluo-4 fluorescence) [1]: decreased | ATP- or nigericin-induced [Ca^2+]m pulse (Rhod-2 fluorescence) [2]: had no effect

O=c1c2ccccc2n(CC2CC2)c(=O)n1O [FEN1-IN-4]
cytosolic Ox-mtDNA (release) [3, 23]: abrogated | ccf-mtDNA secretion into peritoneal exudates [4]: inhibited | Ox-mtDNA secretion into peritoneal exudates ([4]; Fpg-sensitive qPCR): inhibited | LPS-stimulated mtDNA synthesis (total mtDNA) [5]: did not affect | mtROS production [6]: no effect | cytosolic mtDNA release [7, 23]: abrogated | cell-free mtDNA release [8]: inhibited | mtDNA fragmentation [9]: abrogated | formation of Ser^365 phosphorylated STING puncta [10]: diminished | ATP-induced STING Ser^365 phosphorylation (immunoblot) in Nlrp3−/− BMDM [10]: completely blocked | immunostimulatory activity of DNA secreted by treated donor BMDM [11]: inhibited | alum-induced NLRP3 inflammasome-dependent IL-1β production in vivo (peritoneal IL-1β) [12, 24]: inhibited | peritoneal TNF secretion in vivo [12, 24]: without an effect | monocyte infiltration (peritoneal) [12, 25]: reduced | neutrophil infiltration (peritoneal) [12, 25]: reduced | Ox-mtDNA generation (8-OH-dG in mitochondrial mtDNA) ([13]; LPS-primed BMDM, FEN1-IN-4 pretreatment, ATP or nigericin): no effect | NLRP3 inflammasome activation (Casp1 activation and mature IL-1β secretion) [14]: dose-dependent inhibition

O=C(CC(CO)N1CCN(c2ccc(OC(F)(F)F)cc2)CC1)Nc1ccc(Cl)cc1 (centres unmarked) [VBIT-4]
reduction of cytosolic pool of Ox-mtDNA [3, 26]: 81±4% | mtROS production [6]: modest decline | reduction of cytosolic pool of mtDNA [7, 26]: 50-60% | NLRP3, pro-IL-1β, pro-casp1 and ASC expression [15]: without affecting | mitochondrial depolarization upon NLRP3 activator challenge [16]: abrogated | cell-free mtDNA release [8]: inhibited | mPTP opening (calcein fluorescence) [17]: little effect on calcein fluorescence | amount of Ox-mtDNA within the IMS [18]: elevated | amount of mtDNA (different regions of the genome) within the IMS [18]: elevated | TNF secretion [19]: without affecting | VDAC oligomerization induced by NLRP3 activator [20]: blocked | formation of Ser^365 phosphorylated STING puncta [10]: diminished | ATP-induced STING Ser^365 phosphorylation (immunoblot) in Nlrp3−/− BMDM [10]: completely blocked | immunostimulatory activity of DNA secreted by treated donor BMDM [11]: inhibited | reduction of mtDNA oxidation (8-OH-dG in mitochondrial mtDNA) ([13]; LPS-primed BMDM pretreated with CsA or VBIT-4 16 h, ATP stimulation): 45±5.0% | ASC speck formation ([21]; BMDM, VBIT-4 10 μM 16 h, LPS-primed, ATP or nigericin 1 h): inhibited | NLRP3 inflammasome activation (Casp1 activation and mature IL-1β secretion) [14]: inhibited

COc1cc([C@@H]2c3cc4c(cc3[C@@H](O[C@@H]3O[C@@H]5CO[C@@H](C)O[C@H]5[C@H](O)[C@H]3O)[C@H]3COC(=O)[C@H]23)OCO4)cc(OC)c1O [etoposide]
cytochrome C release [22]: induced cytochrome C release | ASC speck formation triggered by apoptosis inducer ([21]; BMDM treated with etoposide): did not trigger
